Experimental data as given in US20230147835A1, “METHODS OF TREATING SYSTEMIC SCLEROSIS” (Horizon Therapeutics Ireland DAC, priority 2020, published 2023).
Entries after “also recorded” stand apart in the source; their conditions may differ.

Key:
models of thrombosis [1] = assay: Model of thrombosis (mouse); type: in vivo; settings: one model in mouse
Source text: (§1) All these pathological events can be observed in SSc patients at different levels and further support the use of Compound 1 in these patients.

[2] = target: lysophosphatidic acid receptor 1 (LPAR1) (Homo sapiens, UniProt Q92633); settings: cited from earlier work
Sequence of lysophosphatidic acid receptor 1 (LPAR1) (Q92633 whole entry, species assumed): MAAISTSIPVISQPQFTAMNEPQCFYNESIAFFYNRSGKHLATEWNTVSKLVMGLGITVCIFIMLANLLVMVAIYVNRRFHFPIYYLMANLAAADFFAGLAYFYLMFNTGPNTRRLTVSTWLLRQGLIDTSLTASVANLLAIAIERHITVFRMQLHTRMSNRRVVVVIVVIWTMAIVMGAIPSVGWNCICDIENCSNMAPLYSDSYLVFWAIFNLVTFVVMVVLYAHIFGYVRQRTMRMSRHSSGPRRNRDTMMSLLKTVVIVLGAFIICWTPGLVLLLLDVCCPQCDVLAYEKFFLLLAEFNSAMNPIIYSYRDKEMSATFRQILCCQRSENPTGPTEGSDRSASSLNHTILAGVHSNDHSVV

[3] = tested on: bleomycin-induced skin fibrosis; assay: Bleomycin-induced skin fibrosis model, therapeutic protocol; type: in vivo, mouse; settings: 50 mg/kg/day
Source text: (§2) Two models of skin fibrosis were used to evaluate the effect of Compound 1 in comparison with imatinib mesylate, used as a reference.

[4] = tested on: hypertension or diabetes-related cardiac hypertrophy, fibrosis and heart failure; assay: Models of hypertension or diabetes-related cardiac hypertrophy, fibrosis and heart failure; settings: in vivo
Source text: as §1

Phase 1 studies = type: in vivo; settings: multiple Phase 1 studies
Source text: See, Khanna, et al. (2007) Curr Rheumatol Rep. 9:151-7, which is incorporated herein by reference for all purposes.

[5] = tested on: hypertension-induced or nephrotoxicity-induced renal failure; assay: Models of hypertension-induced or nephrotoxicity-induced renal failure; settings: in vivo
Source text: as §1

[6] = tested on: patients with early dcSSc; assay: Phase 2 8-week double-blind placebo-controlled study with 16-week open-label extension; type: in vivo, human
Source text: The primary end point was safety during the double-blind phase of the trial. Exploratory end points included the identification of an LPA-induced gene signature in patients' skin.
Seventeen of 32 patients were randomly assigned to receive placebo and 15 to receive Compound 1. Thirty patients participated in the open-label extension study. […] At week 8, the reduction in MRSS was numerically greater in the Compound 1 group than in the placebo group (mean±SD change −3.57±4.18 versus −2.76±4.85; treatment effect −1.2 [95% confidence interval −4.37, 2.02]).

models of thrombosis [7] = assay: Acute models of coagulation and arterial thrombosis (rats); type: in vivo; settings: two models in rats
Source text: as §1

[8] = tested on: presensitized mice treated with ovalbumin; assay: Broncho-alveolar lavage of presensitized mice treated with ovalbumin; settings: mouse, in vivo
tight skin (Tsk-1) mice = assay: Tight skin (Tsk-1) mice skin fibrosis model; type: in vivo, mouse; settings: 30 mg/kg/day; reference imatinib
Source text: as §2

[9] = 24-weeks of continuous treatment
[10] = Subjects switched from placebo to Compound 1 (16-week open label extension)
[11] = initial Compound 1 group, treatment up to 24 weeks, versus baseline

## COc1ccc(C(=O)NC2(C(=O)O)Cc3ccccc3C2)cc1OCCc1cccc(C)c1 [Compound 1, 2-(4-methoxy-3-(3-methylphenethoxy)benzamido)-2,3-dihydro-1H-indene-2-carboxylic acid]
Models of thrombosis [1]
  antithrombotic activity: demonstrated antithrombotic activity
[2]
  antagonist of lysophosphatidic acid receptor 1 (LPAR1): potent antagonist
[3]; therapeutic protocol
  collagen content in mouse skin: able to reverse
  dermal thickness in mouse skin: able to reverse
  myofibroblast differentiation in mouse skin: able to reverse
[3]; reference imatinib mesylate
  effect on these markers compared with imatinib: comparable with the effects of imatinib
[4]
  arterial stiffness: positive effect
  blood pressure: mostly unchanged
  cardiac function and structure: beneficial effect
  cardiac systolic and diastolic function: improves
  heart fibrosis: inhibits fibrosis
Phase 1 studies
  safety and tolerability: safe and well tolerated
[5]
  kidney fibrosis: inhibits fibrosis
  kidney function: improved kidney function
[6]; [9]
  Median Decrease in mRSS: −7.5
  Responder Rate: 78.6%
[6]; FIG. 1
  LPA-related genes, biomarker analysis of skin biopsies: reductions
[6]; Phase 2 double-blind phase and open label extension
  Modified Rodnan Skin Score (mRSS): improvement
[6]; [10]
  Median Decrease in mRSS: −7.0
  Responder Rate: 69.2%
[6]; blinded phase
  most frequent adverse events: headache, diarrhea, nausea, and falling
[6]; difference was not significant
  MRSS during the study: improved
[6]; in vivo
  tolerability in patients with dcSSc: well tolerated
[6]; [11]
  disease biomarker COMP: numerical improvement versus baseline
  disease biomarker TSP1: numerical improvement versus baseline
[6]; open-label extension
  safety profile: acceptable
[6]; week 8
  reduction of LPA-related genes in skin samples versus placebo: greater reduction
[6]; week 8, double-blind phase
  change in MRSS (mean±SD): −3.57±4.18
[6]; week 8, 95% confidence interval −4.37, 2.02
  treatment effect on MRSS versus placebo: −1.2
[6]; week 24
  HAQ-DI: clinically significant improvement
Models of thrombosis [7]
  antithrombotic activity: moderate but significant antithrombotic activity; also recorded: demonstrated antithrombotic activity
[8]
  accumulation of leukocytes and total inflammatory cells in broncho-alveolar lavage: significant inhibitory effect
  inflammation in a model of lung injury with predominant Th2-type response: reduces inflammation
Tight skin (Tsk-1) mice
  progression of skin fibrosis: inhibit the progression of skin fibrosis at a similar level than imatinib
